Measured values as given in article PMC2075610 (Biochimica et Biophysica Acta. Molecular Basis of Disease, 2006).
Residues, ends and D or L forms follow the SMILES beside them. *: point of attachment. For = O=C*

B1: Formyl peptide receptor (FPR R190/K192), P21462 (protein)
chain: METNSSLPTNISGGTPAVSAGYLFLDIITYLVFAVTFVLGVLGNGLVIWVAGFRMTHTVTTISYLNLAVADFCFTSTLPFFMVRKAMGGHWPFGWFLCKFVFTIVDINLFGSVFLIALIALDRCVCVLHPVWTQNHRTVSLAKKVIIGPWVMALLLTLPVIIRVTTVPGKTGTVACTFNFSPWTNDPKERIKVAVAMLTVRGIIRFIIGFSAPMSIVAVSYGLIATKIHKQGLIKSSRPLRVLSFVAAAFFLCWSPYQVVALIATVRIRELLQGMYKEIGIAVDVTSALAFFNSCLNPMLYVFMGQDFRERLIHALPASLERALTEDSTQTSDTATNSTLPSAEVELQAK
B2: Formyl peptide receptor (FPR W190/N192), P21462 (protein)
chain: METNSSLPTNISGGTPAVSAGYLFLDIITYLVFAVTFVLGVLGNGLVIWVAGFRMTHTVTTISYLNLAVADFCFTSTLPFFMVRKAMGGHWPFGWFLCKFVFTIVDINLFGSVFLIALIALDRCVCVLHPVWTQNHRTVSLAKKVIIGPWVMALLLTLPVIIRVTTVPGKTGTVACTFNFSPWTNDPKEWINVAVAMLTVRGIIRFIIGFSAPMSIVAVSYGLIATKIHKQGLIKSSRPLRVLSFVAAAFFLCWSPYQVVALIATVRIRELLQGMYKEIGIAVDVTSALAFFNSCLNPMLYVFMGQDFRERLIHALPASLERALTEDSTQTSDTATNSTLPSAEVELQAK

Experiments:
[1] = molecular target: T1, R190/K192 FPR (Homo sapiens, UniProt P21462, N192K); test: biochemical; assay type: binding
[2] = molecular target: T2, W190/N192 FPR (Homo sapiens, UniProt P21462, R190W); test: biochemical; assay type: binding; details: for Ki: Ki (nM ± SEM) for binding of peptides to W190/N192 FPR
[3] = molecular target: T3, R190/N192 FPR (Homo sapiens, UniProt P21462); test: biochemical; assay type: binding
[4] = molecular target: T1, R190/K192 FPR; test: biochemical; assay type: biochemical
[5] = molecular target: T3, R190/N192 FPR; test: biochemical; assay type: biochemical
[6] = molecular target: T2, W190/N192 FPR; test: biochemical; assay type: biochemical
[7] = molecular target: reverse 229E peptide; test: flow
[8] = molecular target: MMWLL; test: flow

T3 sequence (P21462 whole entry, looked up): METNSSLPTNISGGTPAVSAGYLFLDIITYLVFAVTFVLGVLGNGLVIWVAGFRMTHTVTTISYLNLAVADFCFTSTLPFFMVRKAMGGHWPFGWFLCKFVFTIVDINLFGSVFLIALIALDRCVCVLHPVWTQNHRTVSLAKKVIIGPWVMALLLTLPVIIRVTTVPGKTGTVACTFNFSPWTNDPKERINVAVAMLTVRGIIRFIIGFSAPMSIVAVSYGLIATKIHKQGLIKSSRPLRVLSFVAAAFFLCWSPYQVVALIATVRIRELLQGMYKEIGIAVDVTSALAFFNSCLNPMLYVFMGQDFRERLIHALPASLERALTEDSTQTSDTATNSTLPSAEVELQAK

| Molecule | Ki [1] | Ki [2] | Ki [3] | further results |
| --- | --- | --- | --- | --- |
| CSCC[C@H](NC=O)C(=O)N[C@@H](Cc1ccc(O)cc1)C(=O)N[C@H](C(=O)N[C@@H](CCCCN)C(=O)N[C@@H](Cc1c[nH]c2ccccc12)C(=O)N1CCC[C@H]1C(=O)N[C@@H](Cc1c[nH]c2ccccc12)C(=O)N[C@@H](Cc1ccc(O)cc1)C(=O)N[C@H](C(=O)N[C@@H](Cc1c[nH]c2ccccc12)C(=O)N[C@@H](CC(C)C)C(=O)O)C(C)C)C(C)C (For-MYVKWPWYVWL-OH) | 134 ± 12 nM | 133 ± 8 nM | 134 ± 9 nM | stimulation of GTPγS binding [4]: stimulated GTPγS binding; stimulation of GTPγS binding [5]: stimulated GTPγS binding; stimulation of GTPγS binding [6]: stimulated GTPγS binding |
| CC(C)C[C@H](NC(=O)[C@H](CO)NC(=O)[C@H](C)NC(=O)[C@H](Cc1c[nH]c2ccccc12)NC(=O)[C@H](CCCCN)NC(=O)[C@H](CC(=O)O)NC(=O)[C@H](CC(C)C)NC(=O)[C@@H](N)CCC(=O)O)C(=O)N[C@@H](Cc1c[nH]c2ccccc12)C(=O)N[C@@H](CC(N)=O)C(=O)N[C@@H](Cc1c[nH]c2ccccc12)C(=O)N[C@@H](Cc1ccccc1)C(=O)O (H-ELDKWASLWNWF-OH) | 940 ± 150 nM | 1050 ± 100 nM | 1200 ± 100 nM |  |
| CSCC[C@H](NC(=O)[C@@H](N)CCSC)C(=O)N[C@@H](Cc1c[nH]c2ccccc12)C(=O)N[C@@H](CC(C)C)C(=O)N[C@@H](CC(C)C)C(=O)O [MMWLL, reference compound] (H-MMWLL-OH) | 190 ± 30 nM | 840 ± 200 nM | 330 ± 50 nM | fold higher affinity for R190/K192 than for W190/N192 [1]: ~3 fold |
| CSCC[C@H](N)C(=O)N[C@@H](Cc1ccc(O)cc1)C(=O)N[C@H](C(=O)N[C@@H](CCCCN)C(=O)N[C@@H](Cc1c[nH]c2ccccc12)C(=O)N1CCC[C@H]1C(=O)N[C@@H](Cc1c[nH]c2ccccc12)C(=O)N[C@@H](Cc1ccc(O)cc1)C(=O)N[C@H](C(=O)N[C@@H](Cc1c[nH]c2ccccc12)C(=O)N[C@@H](CC(C)C)C(=O)O)C(C)C)C(C)C (H-MYVKWPWYVWL-OH) | 837 ± 32 nM | 263 ± 9 nM | 783 ± 50 nM | fold enhancement of affinity on formylation [1]: 6 fold; fold enhancement of affinity on formylation [2]: 2 fold; fold higher affinity for W190/N192 than for R190/N192 or R190/K192 [2]: 3 fold; fold enhancement of affinity on formylation [3]: 6 fold; inhibition of 300 nM formyl-MYVKWPWYVWL stimulation of GTPγS binding [4]: did not have a significant effect; stimulation of GTPγS binding [4]: neither ETYIKWPWWVWL nor MYVKWPWYVWL had any effect; inhibition of 300 nM formyl-MYVKWPWYVWL stimulation of GTPγS binding [5]: did not have a significant effect; stimulation of GTPγS binding [5]: neither ETYIKWPWWVWL nor MYVKWPWYVWL had any effect; inhibition of 300 nM formyl-MYVKWPWYVWL stimulation of GTPγS binding [6]: 60%; stimulation of GTPγS binding [6]: neither ETYIKWPWWVWL nor MYVKWPWYVWL had any effect |
| CC[C@H](C)[C@H](NC(=O)[C@H](Cc1ccc(O)cc1)NC(=O)[C@@H](NC(=O)[C@@H](N)CCC(=O)O)[C@@H](C)O)C(=O)N[C@@H](CCCCN)C(=O)N[C@@H](Cc1c[nH]c2ccccc12)C(=O)N1CCC[C@H]1C(=O)O [ETYIKWP] (H-ETYIKWP-OH) | > 260000 nM | > 260000 nM | > 260000 nM | EC50 for inhibition of stimulation of GTPγS binding by formyl-Nle–Leu–Phe [6]: had no effect |
| CC(C)C[C@H](NC(=O)[C@H](Cc1c[nH]c2ccccc12)NC(=O)[C@@H](NC(=O)[C@H](Cc1c[nH]c2ccccc12)NC(=O)[C@@H](N)Cc1c[nH]c2ccccc12)C(C)C)C(=O)O [WWVWL] (H-WWVWL-OH) | ~1400 nM | ~600 nM | ~1000 nM | EC50 [6]: 1300 nM |
| CC[C@H](C)[C@H](NC(=O)[C@H](C)NC(=O)[C@H](CCC(=O)O)NC(=O)[C@H](CCC(N)=O)NC(=O)[C@H](CC(C)C)NC(=O)[C@H](CCCNC(=N)N)NC(=O)[C@H](CC(N)=O)NC(=O)[C@@H](N)CCSC)C(=O)N[C@@H](CCCCN)C(=O)N[C@H](C(=O)N[C@@H](CC(C)C)C(=O)N[C@@H](CC(N)=O)C(=O)N[C@@H](CCC(N)=O)C(=O)N[C@@H](CO)C(=O)N[C@@H](Cc1ccc(O)cc1)C(=O)N[C@H](C(=O)N[C@@H](CC(N)=O)C(=O)N[C@@H](CC(C)C)C(=O)N[C@@H](CCCCN)C(=O)N[C@@H](CC(=O)O)C(=O)N[C@H](C(=O)NCC(=O)N[C@H](C(=O)N[C@@H](Cc1ccc(O)cc1)C(=O)N[C@@H](CCC(=O)O)C(=O)N[C@@H](Cc1ccc(O)cc1)C(=O)N[C@@H](Cc1ccc(O)cc1)C(=O)N[C@H](C(=O)N[C@@H](CCCCN)C(=O)N[C@@H](Cc1c[nH]c2ccccc12)C(=O)N1CCC[C@H]1C(=O)N[C@@H](Cc1c[nH]c2ccccc12)C(=O)N[C@@H](Cc1ccc(O)cc1)C(=O)N[C@H](C(=O)N[C@@H](Cc1c[nH]c2ccccc12)C(=O)N[C@@H](CC(C)C)C(=O)O)C(C)C)C(C)C)[C@@H](C)O)[C@@H](C)CC)[C@@H](C)CC)C(C)C [Coronavirus OC43 36mer] | 740 ± 80 nM | 460 ± 50 nM | 850 ± 80 nM |  |
| CC[C@H](C)[C@H](NC(=O)[C@H](CC(N)=O)NC(=O)[C@H](C)NC(=O)[C@H](CCC(=O)O)NC(=O)[C@H](CC(C)C)NC(=O)[C@@H](N)Cc1ccc(O)cc1)C(=O)N[C@@H](CO)C(=O)N[C@@H](CCC(=O)O)C(=O)N[C@@H](CC(C)C)C(=O)N[C@@H](CC(C)C)C(=O)N[C@@H](CCC(=O)O)C(=O)N[C@@H](CCC(N)=O)C(=O)N[C@@H](C)C(=O)N[C@@H](CCC(N)=O)C(=O)N[C@H](C(=O)N[C@@H](CCC(N)=O)C(=O)N[C@@H](CCC(N)=O)C(=O)N[C@@H](CCC(=O)O)C(=O)N[C@@H](CCCCN)C(=O)N[C@@H](CC(N)=O)C(=O)N[C@@H](CCSC)C(=O)N[C@@H](Cc1ccc(O)cc1)C(=O)N[C@@H](CCC(=O)O)C(=O)N[C@@H](CC(C)C)C(=O)N[C@@H](CCC(N)=O)C(=O)N[C@@H](CCCCN)C(=O)N[C@@H](CC(C)C)C(=O)N[C@@H](CC(N)=O)C(=O)N[C@@H](CO)C(=O)N[C@@H](Cc1c[nH]c2ccccc12)C(=O)N[C@@H](CC(=O)O)C(=O)N[C@H](C(=O)N[C@@H](Cc1ccccc1)C(=O)NCC(=O)N[C@@H](CC(N)=O)C(=O)N[C@@H](Cc1c[nH]c2ccccc12)C(=O)N[C@@H](Cc1ccccc1)C(=O)O)C(C)C)[C@@H](C)CC [HIV-2 37 mer] | 10000 nM | 4000 ± 1000 nM | 15700 nM |  |
| CC[C@H](C)[C@H](NC(=O)[C@H](CC(N)=O)NC(=O)[C@H](CC(=O)O)NC(=O)[C@@H](NC(=O)[C@H](CC(C)C)NC(=O)[C@@H](NC(=O)[C@H](CCC(N)=O)NC(=O)[C@H](CC(C)C)NC(=O)[C@H](CCCCN)NC(=O)[C@H](CCC(N)=O)NC(=O)[C@@H](N)C(C)C)[C@@H](C)O)[C@@H](C)CC)C(=O)N[C@@H](CC(N)=O)C(=O)N[C@@H](CO)C(=O)N[C@H](C(=O)N[C@@H](CC(C)C)C(=O)N[C@H](C(=O)N[C@@H](CC(=O)O)C(=O)N[C@@H](CC(C)C)C(=O)N[C@@H](CCCCN)C(=O)N[C@@H](Cc1c[nH]c2ccccc12)C(=O)N[C@@H](CC(C)C)C(=O)N[C@@H](CC(N)=O)C(=O)N[C@@H](CCCNC(=N)N)C(=O)N[C@H](C(=O)N[C@@H](CCC(=O)O)C(=O)N[C@H](C(=O)N[C@@H](Cc1ccc(O)cc1)C(=O)N[C@H](C(=O)N[C@@H](CCCCN)C(=O)N[C@@H](Cc1c[nH]c2ccccc12)C(=O)N1CCC[C@H]1C(=O)N[C@@H](Cc1c[nH]c2ccccc12)C(=O)N[C@@H](Cc1c[nH]c2ccccc12)C(=O)N[C@H](C(=O)N[C@@H](Cc1c[nH]c2ccccc12)C(=O)N[C@@H](CC(C)C)C(=O)O)C(C)C)[C@@H](C)CC)[C@@H](C)O)C(C)C)C(C)C)[C@@H](C)O [Coronavirus 229E 36 mer] | 6800 nM | 1300 ± 60 nM | 10000 nM |  |
| CC(C)C[C@H](NC(=O)[C@@H](N)CCCCN)C(=O)N[C@@H](CC(N)=O)C(=O)N[C@@H](CO)C(=O)N[C@@H](Cc1c[nH]c2ccccc12)C(=O)N[C@@H](CC(=O)O)C(=O)N[C@H](C(=O)N[C@@H](Cc1ccccc1)C(=O)NCC(=O)N[C@@H](CC(N)=O)C(=O)N[C@@H](Cc1c[nH]c2ccccc12)C(=O)N[C@@H](Cc1ccccc1)C(=O)O)C(C)C | 9500 nM | 4700 ± 290 nM | 15000 nM |  |
| CC(C)C[C@H](NC(=O)[C@H](Cc1c[nH]c2ccccc12)NC(=O)[C@@H](NC(=O)[C@H](Cc1c[nH]c2ccccc12)NC(=O)[C@H](Cc1c[nH]c2ccccc12)NC(=O)[C@@H]1CCCN1C(=O)[C@@H](N)Cc1c[nH]c2ccccc12)C(C)C)C(=O)O [WPWWVWL] (H-WPWWVWL-OH) | ~600 nM | ~600 nM | ~600 nM |  |
| B1 |  |  |  | Ki [7]: > 50000 nM; Ki [8]: 190 nM |
| B2 |  |  |  | Ki [7]: > 50000 nM; Ki [8]: 840 nM |
